# Source: PubChem BioAssay AID1845194 (Molecular Pharmacology Branch, DTP, NCI, 2023)
# pIC50: −log10 of the molar value. Where “and” joins values, the source holds several entries; their conditions need not be identical. Equal entries are not always repeated.
# Test system: 287954-098-R-J1 tumor spheroid viability
# Test: Anticancer human tumor 287954-098-R-J1 patient-derived Ewing sarcoma cell line growth inhibition
# Conditions: spheroids with HUVEC and MSC; for viability, T/C: stronger effect = lower value
# How it was run: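 Complex tumor spheroids combined malignant cells with endothelial cells and mesenchymal stem cells. DNA-damaging drugs and DNA repair inhibitors were tested alone and in combination, at half-log dilutions down from clinical Cmax (top 10 microM if Cmax unknown), 0.25% DMSO final.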
# 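Also: spheroids exposed to compound for 7 days before viability readout.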
# 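For viability, T/C in this document: luminescent signal taken as surrogate of viable cell content; 100% = DMSO vehicle control viability and lower means growth inhibition.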
smiles,measurement,setting,value
Cc1sc2c(c1C)C(c1ccc(Cl)cc1)=NC(CC(=O)Nc1ccc(O)cc1)c1nnc(C)n1-2 (configuration not stated) + COc1cc2c(cc1O)CCNC21CSC2c3c(OC(C)=O)c(C)c4c(c3C(COC1=O)N1C(O)C3Cc5cc(C)c(OC)c(O)c5C(C21)N3C)OCO4,pIC50,"curve of first compound, second compound 30 pM",6.28
same,pIC50,"curve of first compound, second compound 94.9 pM",6.37
same,pIC50,"curve of first compound, second compound 0.0003 µM",7.11
same,pIC50,"curve of first compound, second compound 0.000949 µM",> 8.02
same,pIC50,"curve of first compound, second compound 0.003 µM",> 8.02
same,"viability, T/C","second compound 30 pM, first compound 0.00949 µM",110%
same,"viability, T/C","second compound 30 pM, first compound 0.03 µM",120%
same,"viability, T/C","second compound 30 pM, first compound 0.0949 µM",111%
same,"viability, T/C","second compound 30 pM, first compound 0.3 µM",97.2%
same,"viability, T/C","second compound 30 pM, first compound 0.949 µM",1.47%
same,"viability, T/C","second compound 30 pM, first compound 3 µM",1.05%
same,"viability, T/C","second compound 94.9 pM, first compound 0.00949 µM",109%
same,"viability, T/C","second compound 94.9 pM, first compound 0.03 µM",117%
same,"viability, T/C","second compound 94.9 pM, first compound 0.0949 µM",112%
same,"viability, T/C","second compound 94.9 pM, first compound 0.3 µM",65.4%
same,"viability, T/C","second compound 94.9 pM, first compound 0.949 µM",14.5%
same,"viability, T/C","second compound 94.9 pM, first compound 3 µM",1.03%
same,"viability, T/C","second compound 0.0003 µM, first compound 0.00949 µM",105%
same,"viability, T/C","second compound 0.0003 µM, first compound 0.03 µM",93.7%
same,"viability, T/C","second compound 0.0003 µM, first compound 0.0949 µM",39%
same,"viability, T/C","second compound 0.0003 µM, first compound 0.3 µM",12.4%
same,"viability, T/C","second compound 0.0003 µM, first compound 0.949 µM",0.78%
same,"viability, T/C","second compound 0.0003 µM, first compound 3 µM",0.57%
same,"viability, T/C","second compound 0.000949 µM, first compound 0.00949 µM",0.33%
same,"viability, T/C","second compound 0.000949 µM, first compound 0.03 µM",0.34%
same,"viability, T/C","second compound 0.000949 µM, first compound 0.0949 µM",0.25%
same,"viability, T/C","second compound 0.000949 µM, first compound 0.3 µM",0.07%
same,"viability, T/C","second compound 0.000949 µM, first compound 0.949 µM",0.03%
same,"viability, T/C","second compound 0.000949 µM, first compound 3 µM",0.11%
same,"viability, T/C","second compound 0.003 µM, first compound 0.00949 µM",0.17%
same,"viability, T/C","second compound 0.003 µM, first compound 0.03 µM",0.16%
same,"viability, T/C","second compound 0.003 µM, first compound 0.0949 µM",0.1%
same,"viability, T/C","second compound 0.003 µM, first compound 0.3 µM",0.11%
same,"viability, T/C","second compound 0.003 µM, first compound 0.949 µM",0.11%
same,"viability, T/C","second compound 0.003 µM, first compound 3 µM",0.19%
CC(C)n1c(=O)n(C)c2cnc3cc(F)c(-c4ccc(OCCCN5CCCCC5)nc4)cc3c21,"viability, T/C",compound 0.0316 µM,110% (2×) and 102%
same,"viability, T/C",compound 0.1 µM,102% (2×) and 101%
same,"viability, T/C",compound 0.316 µM,110% and 98.5% and 105%
same,"viability, T/C",compound 1 µM,102% and 110% and 112%
same,"viability, T/C",compound 3.16 µM,108% and 107% (2×)
same,"viability, T/C",compound 10 µM,11% and 86.6% and 25.5%
same,pIC50,curve of compound,5.20 and < 5.00 and 5.15
O=C(c1cc(Cc2n[nH]c(=O)c3ccccc23)ccc1F)N1CCN(C(=O)C2CC2)CC1 + Cn1nnc2c(C(N)=O)ncn2c1=O,pIC50,"curve of first compound, second compound 1 µM",4.69
same,pIC50,"curve of first compound, second compound 3.16 µM",4.68
same,pIC50,"curve of first compound, second compound 10 µM",4.98
same,pIC50,"curve of first compound, second compound 31.6 µM",5.47
same,pIC50,"curve of first compound, second compound 100 µM",6.21
same,"viability, T/C","second compound 1 µM, first compound 0.0949 µM",97.5%
same,"viability, T/C","second compound 1 µM, first compound 0.3 µM",97.2%
same,"viability, T/C","second compound 1 µM, first compound 0.949 µM",106%
same,"viability, T/C","second compound 1 µM, first compound 3 µM",95.1%
same,"viability, T/C","second compound 1 µM, first compound 9.49 µM",86.2%
same,"viability, T/C","second compound 1 µM, first compound 30 µM",32.5%
same,"viability, T/C","second compound 3.16 µM, first compound 0.0949 µM",104%
same,"viability, T/C","second compound 3.16 µM, first compound 0.3 µM",101%
same,"viability, T/C","second compound 3.16 µM, first compound 0.949 µM",98.2%
same,"viability, T/C","second compound 3.16 µM, first compound 3 µM",105%
same,"viability, T/C","second compound 3.16 µM, first compound 9.49 µM",85.1%
same,"viability, T/C","second compound 3.16 µM, first compound 30 µM",34%
same,"viability, T/C","second compound 10 µM, first compound 0.0949 µM",107%
same,"viability, T/C","second compound 10 µM, first compound 0.3 µM",107%
same,"viability, T/C","second compound 10 µM, first compound 0.949 µM",93.6%
same,"viability, T/C","second compound 10 µM, first compound 3 µM",99%
same,"viability, T/C","second compound 10 µM, first compound 9.49 µM",53.7%
same,"viability, T/C","second compound 10 µM, first compound 30 µM",4.76%
same,"viability, T/C","second compound 31.6 µM, first compound 0.0949 µM",107%
same,"viability, T/C","second compound 31.6 µM, first compound 0.3 µM",103%
same,"viability, T/C","second compound 31.6 µM, first compound 0.949 µM",106%
same,"viability, T/C","second compound 31.6 µM, first compound 3 µM",56%
same,"viability, T/C","second compound 31.6 µM, first compound 9.49 µM",2.11%
same,"viability, T/C","second compound 31.6 µM, first compound 30 µM",1.97%
same,"viability, T/C","second compound 100 µM, first compound 0.0949 µM",104%
same,"viability, T/C","second compound 100 µM, first compound 0.3 µM",88.5%
same,"viability, T/C","second compound 100 µM, first compound 0.949 µM",27.7%
same,"viability, T/C","second compound 100 µM, first compound 3 µM",2.13%
same,"viability, T/C","second compound 100 µM, first compound 9.49 µM",1.91%
same,"viability, T/C","second compound 100 µM, first compound 30 µM",1.8%
